Results taken from patent US8916557B2, “Substituted 4-Aryl-N-phenyl-1,3,5-triazin-2-amines” (Bayer Intellectual Property GmbH, priority 2011, dated 2014).

Key:
CDK9/CycT1 = molecular target: T1, CDK9/CycT1 (Homo sapiens, UniProt P50750); assay: CDK9/CycT1 kinase assay (TR-FRET); format: biochemical; conditions: Method 1, 10 μM ATP
T1 construct: Recombinant full-length His-tagged human CDK9 and CycT1; His; purchased Invitrogen PV4131; host or cells: insect cells
Excerpt: 1. CDK9/CycT1 Kinase Assay:
CDK9/CycT1-inhibitory activity of compounds of the present invention was quantified employing the CDK9/CycT1 TR-FRET assay as described in the following paragraphs:
Recombinant full-length His-tagged human CDK9 and CycT1, expressed in insect cells and purified by Ni-NTA affinity chromatography, were purchased from Invitrogen (Cat. No PV4131). As substrate for the kinase reaction biotinylated peptide biotin-Ttds-[…] (C-terminus in amid form) was used which can be purchased e.g. form the company JERINI Peptide Technologies (Berlin, Germany). For the assay 50 nl of a 100fold concentrated solution of the test compound in DMSO was pipetted into a black low volume 384well microtiter plate (Greiner Bio-One, Frickenhausen, Germany), 2 μl of a solution of CDK9/CycT1 in aqueous assay buffer [50 mM Tris/HCl pH 8.0, 10 mM MgCl2, 1.0 mM dithiothreitol, 0.1 mM sodium ortho-vanadate, 0.01% (v/v) Nonidet-P40 (Sigma)] were added and the mixture was incubated for 15 min at 22° C. to allow pre-binding of the test compounds to the enzyme before the start of the kinase reaction. Then the kinase reaction was started by the addition of 3 μl of a solution of adenosine-tri-phosphate (ATP, 16.7 μM=>final conc. in the 5 μl assay volume is 10 μM) and substrate (1.67 μM=>final conc. in the 5 μl assay volume is 1 μM) in assay buffer and the resulting mixture was incubated for a reaction time of 25 min at 22° C. The concentration of CDK9/CycT1 was adjusted depending of the activity of the enzyme lot and was chosen appropriate to have the assay in the linear range, typical concentrations were in the range of 1 μg/ml. The reaction was stopped by the addition of 5 μl of a solution of TR-FRET detection reagents (0.2 μM streptavidine-XL665 [Cisbio Bioassays, Codolet, France] and 1 nM anti-RB(pSer807/pSer811)-antibody from BD Pharmingen [#558389] and 1.2 nM LANCE EU-W1024 labeled anti-mouse IgG antibody [Perkin-Elmer, product no. AD0077]) in an aqueous EDTA-solution (100 mM EDTA, 0.2% (w/v) bovine serum albumin in 100 mM HEPES/NaOH pH 7.0).
(§1) The resulting mixture was incubated 1 h at 22° C. to allow the formation of complex between the phosphorylated biotinylated peptide and the detection reagents. Subsequently the amount of phosphorylated substrate was evaluated by measurement of the resonance energy transfer from the Eu-chelate to the streptavidine-XL. Therefore, the fluorescence emissions at 620 nm and 665 nm after excitation at 350 nm was measured in a HTRF reader, e.g. a Rubystar (BMG Labtechnologies, Offenburg, Germany) or a Viewlux (Perkin-Elmer). The ratio of the emissions at 665 nm and at 622 nm was taken as the measure for the amount of phosphorylated substrate.

CDK2/CycE = molecular target: T2, CDK2/CycE (Homo sapiens, UniProt P24941); assay: CDK2/CycE kinase assay (TR-FRET); format: biochemical; conditions: Method 2, 10 μM ATP
T2 construct: GST; purchased ProQinase GmbH (Freiburg, Germany); host or cells: insect cells (Sf9)
Excerpt: 2. CDK2/CycE Kinase Assay:
CDK2/CycE-inhibitory activity of compounds of the present invention was quantified employing the CDK2/CycE TR-FRET assay as described in the following paragraphs:
Recombinant fusion proteins of GST and human CDK2 and of GST and human CycE, expressed in insect cells (Sf9) and purified by Glutathion-Sepharose affinity chromatography, were purchased from ProQinase GmbH (Freiburg, Germany). As substrate for the kinase reaction biotinylated peptide biotin-Ttds-[…] (C-terminus in amid form) was used which can be purchased e.g. form the company JERINI Peptide Technologies (Berlin, Germany).
For the assay 50 nl of a 100fold concentrated solution of the test compound in DMSO was pipetted into a black low volume 384well microtiter plate (Greiner Bio-One, Frickenhausen, Germany), 2 μl of a solution of CDK2/CycE in aqueous assay buffer [50 mM Tris/HCl pH 8.0, 10 mM MgCl2, 1.0 mM dithiothreitol, 0.1 mM sodium ortho-vanadate, 0.01% (v/v) Nonidet-P40 (Sigma)] were added and the mixture was incubated for […] at 22° C. to allow pre-binding of the test compounds to the enzyme before the start of the kinase reaction. Then the kinase reaction was started by the addition of 3 μl of a solution of adenosine-tri-phosphate (ATP, 16.7 μM=>final conc. in the 5 it assay volume is 10 μM) and substrate (1.25 μM=>final conc. in the 5 it assay volume is 0.75 μM) in assay buffer and the resulting mixture was incubated for a reaction time of […] at 22° C. The concentration of CDK2/CycE was adjusted depending of the activity of the enzyme lot and was chosen appropriate to have the assay in the linear range, typical concentrations were in the range of 130 ng/ml. The reaction was stopped by the addition of 5 it of a solution of TR-FRET detection reagents (0.2 μM streptavidine-XL665 [Cisbio Bioassays, Codolet, France] and 1 nM anti-RB(pSer807/pSer811)-antibody from BD Pharmingen [#558389] and 1.2 nM LANCE EU-W1024 labeled anti-mouse IgG antibody [Perkin-Elmer, product no. AD0077]) in an aqueous EDTA-solution (100 mM EDTA, 0.2% (w/v) bovine serum albumin in 100 mM HEPES/NaOH pH 7.0).
as §1, with “TR-FRET” for “HTRF”

[1] = system: HeLa human cervical tumour cells; assay: Proliferation assay (crystal violet), HeLa; format: cell-based; conditions: read-out: Inhibition of HeLa cell proliferation

T1 sequence (P50750 whole entry): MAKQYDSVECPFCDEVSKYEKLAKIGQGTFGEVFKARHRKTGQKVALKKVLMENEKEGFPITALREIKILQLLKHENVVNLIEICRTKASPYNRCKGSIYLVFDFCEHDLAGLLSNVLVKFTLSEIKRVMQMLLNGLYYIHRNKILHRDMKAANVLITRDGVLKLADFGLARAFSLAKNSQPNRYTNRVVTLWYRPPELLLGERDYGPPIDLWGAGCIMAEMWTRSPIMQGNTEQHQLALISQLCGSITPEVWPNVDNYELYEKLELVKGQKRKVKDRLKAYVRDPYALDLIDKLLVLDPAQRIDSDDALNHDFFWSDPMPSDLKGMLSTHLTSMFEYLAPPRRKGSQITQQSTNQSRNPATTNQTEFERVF
T1 sequence (O60563 whole entry partner): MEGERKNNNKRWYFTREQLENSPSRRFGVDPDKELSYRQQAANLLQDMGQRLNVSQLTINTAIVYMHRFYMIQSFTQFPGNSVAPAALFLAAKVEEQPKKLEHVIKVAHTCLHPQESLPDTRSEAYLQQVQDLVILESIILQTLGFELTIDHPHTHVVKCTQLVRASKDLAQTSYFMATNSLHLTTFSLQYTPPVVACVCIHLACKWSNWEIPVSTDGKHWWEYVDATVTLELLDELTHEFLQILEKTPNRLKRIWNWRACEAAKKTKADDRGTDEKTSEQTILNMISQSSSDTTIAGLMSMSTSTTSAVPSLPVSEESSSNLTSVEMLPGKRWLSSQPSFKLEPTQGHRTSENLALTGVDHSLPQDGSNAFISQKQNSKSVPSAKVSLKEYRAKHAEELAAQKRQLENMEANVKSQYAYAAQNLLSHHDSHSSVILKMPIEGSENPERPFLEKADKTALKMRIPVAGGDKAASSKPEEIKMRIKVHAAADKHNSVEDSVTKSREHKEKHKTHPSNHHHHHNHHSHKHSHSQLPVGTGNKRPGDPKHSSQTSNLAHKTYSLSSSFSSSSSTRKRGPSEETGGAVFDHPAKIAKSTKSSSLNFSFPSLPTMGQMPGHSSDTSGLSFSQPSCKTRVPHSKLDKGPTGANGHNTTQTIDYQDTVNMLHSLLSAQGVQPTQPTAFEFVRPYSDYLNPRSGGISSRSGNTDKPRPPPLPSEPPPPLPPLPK

| IC50 (CDK9/CycT1) | IC50 (CDK2/CycE) | IC50 [1] | Compound |
| --- | --- | --- | --- |
| 0.016 µM | 1.1 µM | 1.4 µM | CC(Oc1cc(F)ccc1-c1ncnc(Nc2cccc(CS(C)(=O)=O)c2)n1)c1ccccc1 (racemic) [Example 68, rac-4-[4-Fluoro-2-(1-phenylethoxy)phenyl]-N-{3-[(methylsulfonyl)methyl]phenyl}-1,3,5-triazin-2-amine] |
| 0.037 µM | 4.7 µM | 1.5 µM | COc1cnccc1-c1ncnc(Nc2cccc(CS(C)(=O)=O)c2)n1 [Example 8, 4-(3-Methoxypyridin-4-yl)-N-{3-[(methylsulfonyl)methyl]phenyl}-1,3,5-triazin-2-amine] |
| 0.015 µM | 0.71 µM | 0.95 µM | CS(=O)(=O)Cc1cccc(Nc2ncnc(-c3cccc4c3OCC4)n2)c1 [Example 13, 4-(2,3-Dihydro-1-benzofuran-7-yl)-N-{3-[(methylsulfonyl)methyl]phenyl}-1,3,5-triazin-2-amine] |
| 0.012 µM | 0.61 µM | 0.6 µM | COc1cc(F)ccc1-c1ncnc(Nc2cccc(CS(=O)(=O)CCO)c2)n1 [Example 14, 2-[(3-{[4-(4-Fluoro-2-methoxyphenyl)-1,3,5-triazin-2-yl]amino}benzyl)sulfonyl]ethanol] |
| 0.023 µM | 2.5 µM | 1.4 µM | [2H]C([2H])([2H])Oc1ccccc1-c1ncnc(Nc2cccc(CS(C)(=O)=O)c2)n1 [Example 22, 4-{2-[(^2H3)methyloxy]phenyl}-N-{3-[(methylsulfonyl)methyl]phenyl}-1,3,5-triazin-2-amine] |
| 0.012 µM | 1.3 µM | 0.93 µM | COCCS(=O)(=O)Cc1cccc(Nc2ncnc(-c3ccc(F)cc3OC)n2)c1 [Example 23, 4-(4-Fluoro-2-methoxyphenyl)-N-(3-{[(2-methoxyethyl)sulfonyl]methyl}phenyl)-1,3,5-triazin-2-amine] |
| 0.007 µM | 0.68 µM | 1 µM | COc1cc(F)ccc1-c1ncnc(Nc2cccc(CS(=O)(=O)C(C)C)c2)n1 [Example 24, 4-(4-Fluoro-2-methoxyphenyl)-N-{3-[(propan-2-ylsulfonyl)methyl]phenyl}-1,3,5-triazin-2-amine] |
| 0.007 µM | 1.1 µM | 0.76 µM | CS(=O)(=O)Cc1cccc(Nc2ncnc(-c3ccccc3OCc3ccc(F)cc3)n2)c1 [Example 25, 4-{2-[(4-Fluorobenzyl)oxy]phenyl}-N-{3-[(methylsulfonyl)methyl]phenyl}-1,3,5-triazin-2-amine] |
| 0.01 µM | 0.8 µM | 1.2 µM | CC(C)S(=O)(=O)Cc1cccc(Nc2ncnc(-c3ccccc3OCc3cccc(Cl)c3)n2)c1 [Example 34, 4-{2-[(3-Chlorobenzyl)oxy]phenyl}-N-{3-[(propan-2-ylsulfonyl)methyl]phenyl}-1,3,5-triazin-2-amine] |
| 0.03 µM | 2.2 µM |  | COc1cc(F)ccc1-c1ncnc(Nc2cccc(CS(=O)(=O)c3ccccc3)c2)n1 [Example 35, 4-(4-Fluoro-2-methoxyphenyl)-N-{3-[(phenylsulfonyl)methyl]phenyl}-1,3,5-triazin-2-amine] |
| 0.08 µM | 9.4 µM |  | CCOCCOc1cc(F)ccc1-c1ncnc(Nc2cccc(CS(C)(=O)=O)c2)n1 [Example 51, 4-[2-(2-Ethoxyethoxy)-4-fluorophenyl]-N-{3-[(methylsulfonyl)methyl]phenyl}-1,3,5-triazin-2-amine] |
| 0.17 µM | 7.4 µM |  | CS(=O)(=O)Cc1cccc(Nc2ncnc(-c3ccc(F)cc3OCCC3CCCCC3)n2)c1 [Example 63, 4-[2-(2-Cyclohexylethoxy)-4-fluorophenyl]-N-{3-[(methylsulfonyl)methyl]phenyl}-1,3,5-triazin-2-amine] |
| 0.034 µM | 1.8 µM |  | CS(=O)(=O)Cc1cccc(Nc2ncnc(-c3ccc(F)cc3OC3CCC3)n2)c1 [Example 64, 4-[2-(Cyclobutyloxy)-4-fluorophenyl]-N-{3-[(methylsulfonyl)methyl]phenyl}-1,3,5-triazin-2-amine] |
| 0.036 µM | 2.3 µM |  | CS(=O)(=O)Cc1cccc(Nc2ncnc(-c3ccc(F)cc3OC3CCCC3)n2)c1 [Example 65, 4-[2-(Cyclopentyloxy)-4-fluorophenyl]-N-{3-[(methylsulfonyl)methyl]phenyl}-1,3,5-triazin-2-amine] |
| 0.022 µM | 6.8 µM |  | CS(=O)(=O)Cc1cccc(Nc2ncnc(-c3ccc(F)cc3OCC3(F)CCCCC3)n2)c1 [Example 66, 4-{4-Fluoro-2-[(1-fluorocyclohexyl)-methoxy]phenyl}-N-{3-[(methylsulfonyl)-methyl]phenyl}-1,3,5-triazin-2-amine] |
| 0.006 µM |  | 1.1 µM | CS(=O)(=O)Cc1cccc(Nc2ncnc(-c3ccc(F)cc3OCc3cc(F)c(F)cc3F)n2)c1 [Example 75, 4-{4-Fluoro-2-[(2,4,5-trifluorobenzyl)oxy]phenyl}-N-{3-[(methylsulfonyl)-methyl]phenyl}-1,3,5-triazin-2-amine] |
| 0.004 µM |  | 0.95 µM | CS(=O)(=O)Cc1cccc(Nc2ncnc(-c3ccc(F)cc3OCc3cc(F)cc(C(F)(F)F)c3)n2)c1 [Example 78, 4-(4-Fluoro-2-{[3-fluoro-5-(trifluoromethyl)benzyl]oxy}phenyl)-N-{3-[(methylsulfonyl)-methyl]-phenyl}-1,3,5-triazin-2-amine] |
| 0.005 µM |  | 0.82 µM | CS(=O)(=O)Cc1cccc(Nc2ncnc(-c3ccc(F)cc3OCc3cc(F)ccc3F)n2)c1 [Example 81, 4-{2-[(2,5-Difluorobenzyl)-oxy]-4-fluorophenyl}-N-{3-[(methylsulfonyl)methyl]phenyl}-1,3,5-triazin-2-amine] |
| 0.001 µM | 0.075 µM |  | CS(=O)(=O)Cc1cccc(Nc2ncnc(-c3ccc(F)cc3OCc3ccnc(F)c3)n2)c1 [Example 82, 4-{4-Fluoro-2-[(2-fluoropyridin-4-yl)methoxy]-phenyl}-N-{3-[(methylsulfonyl)-methyl]-phenyl}-1,3,5-triazin-2-amine] |
